The values that follow come from US5439888A, “Antithrombotic agents” (Eli Lilly and Company, priority 1994, dated 1995).

For experiment [1], the target named is Bovine Thrombin. As to the kind of experiment: Inhibition of thrombin amidase activity (chromogenic substrate), Kass. As to conditions: equilibrium association constant, mean over a range of concentrations; substrate N-benzoyl-Phe-Val-Arg-p-nitroanilide. The class given is biochemical. How it is done: (§1) The assay is carried out by mixing 50 μL buffer (0.03M Tris, 0.15M NaCl ,pH 7.4) with 25 μL of bovine thrombin or human thrombin solution (0.21 mg/mL of thrombostat bovine thrombin, Parke-Davis, or purified human thrombin, Enzyme Research Laboratories, South Bend, Ind., at about 8 NIH units/mL, in the same buffer) and 25 μL of test compound in a solvent (in 50% aqueous methanol, v:v). The 150 μL of an aqueous solution of the chromogenic substrate (at 0.25 mg/mL) are added and the rates of hydrolysis of the substrate are measured by monitoring the reactions at 405 nm for the release of p-nitroaniline. Standard curves are constructed by plotting free thrombin concentration against hydrolysis rate. The hydrolysis rates observed with test compounds are then converted to "free thrombin" values in the respective assays by use of the standard curves. The bound thrombin (bound to test compound) is calculated by subtracting the amount of free thrombin observed in each assay from the known initial amount of thrombin used in the assay. The amount of free inhibitor in each assay is calculated by subtracting the number of moles of bound thrombin from the number of moles of added inhibitor (test compound). […]
Kass is calculated for a range of concentrations of test compounds and the mean value is reported in units of liter per mole.

Experiment [2] has as its target Trypsin. In words: Serine protease selectivity assay (chromogenic substrate), Kass, trypsin. The class given is biochemical, bovine. As to conditions: equilibrium association constant; substrate N-Benzoyl-Phe-Val-Arg-p-nitroanilide. The method, then:
[The procedure below names another target; the source says it served here with some conditions changed.] as §1
(§2) Kass is calculated for a range of concentrations of test compounds and the mean value is reported in units of liter per mole. […]

Experiment [3] has as its target Plasmin. As to the kind of experiment: Serine protease selectivity assay (chromogenic substrate), Kass, plasmin. It counts as biochemical, human. As to conditions: equilibrium association constant; substrate H-D-Val-Leu-Lys-p-nitroanilide. The method, then: [The procedure below names another target; the source says it served here with some conditions changed.] as §1, §2

Experiment [4] concerns the target factor Xa. As to the kind of experiment: Serine protease selectivity assay (chromogenic substrate), Kass, factor Xa. The class given is biochemical, human. As to conditions: equilibrium association constant; substrate N-Benzoyl-Ile-Glu-Gly-Arg-p-nitroanilide. The method, then:
[The procedure below names another target; the source says it served here with some conditions changed.] as §1, §2

Experiment [5] has as its system t-PA. As to the kind of experiment: Serine protease selectivity assay (chromogenic substrate), Kass, t-PA. As to conditions: equilibrium association constant; substrate H-D-Ile-Pro-Arg-p-nitroanilide. The class given is biochemical. The method, then:
[The procedure below names another target; the source says it served here with some conditions changed.] as §1, §2

What is called Kd is the equilibrium constant for the complex coming apart. Lower therefore signals tighter binding. `CN[C@H](Cc1ccccc1)C(=O)N1CCC[C@H]1C(=O)N[C@](C)(C=O)CCCNC(=N)N` [Example 1, D-N-methylphenylalanyl-L-prolinyl-L-α-methylarginine aldehyde]: the Kd in experiment [1] was 909 nM; in experiment [2], 250 µM; in experiment [3], 2 mM; in experiment [4], 3.33 mM. In addition, in experiment [5], the “Kass t-PA” value is given as 0 × 10^6 (L/mole).

In the case of `C[C@@](C=O)(CCCNC(=N)N)NC(=O)[C@@H]1CCCN1C(=O)[C@@H]1NCCc2ccccc21` [Example 2, D-1-(1,2,3,4-tetrahydroisoquinolinylcarboxyl)-L-prolinyl-L -α-methylarginine aldehyde], the Kd is 4550 nM in experiment [1], 71.4 µM in experiment [2], 1.25 mM in experiment [3] and 1 mM in experiment [4]. The “Kass t-PA” value in experiment [5] is 0 × 10^6 (L/mole).
